Test results reported in US12331048B2, “Pyrido-[3,4-d]pyridazine amine derivatives useful as NLRP3 inhibitors” (Ventus Therapeutics U.S., Inc., priority 2022, dated 2025).
Like-named read-outs stand apart in the source and are kept apart here.

Columns and labels:
NLRP3 = target: T1, NLRP3 (Homo sapiens, UniProt Q96P20); test: Human whole blood (hWB) NLRP3 assay; assay type: cell-based; settings: LPS priming 1 μg/ml, ATP activation, read-out: hWB IC50 (raw activity data)
T1 construct: endogenous in cells
Protocol: Heparin lithium coated tubes were used to collect blood from volunteers. Blood samples were distributed on 96 well plates using 90 μl per well. Priming was performed by adding 5 μl of LPS (O26:B6; Sigma L-2654) at a final concentration of 1 μg/ml for 4.5 hours in a humidified incubator with 37° C., 5% CO2. Thirty minutes prior to NLRP3 activation, 5 μl of a 20× compound solution or vehicle (2% DMSO) was added to each well and plates were incubated on a shaker (450 rpm) in a humidified incubator with 37° C., 5% CO2. Activation was then performed by adding 3.3 μl of a 31×ATP solution per well. At the end of the 30 minutes stimulation, the plates were centrifuged (800 g, 10 min. room temperature) and the plasma from each well was frozen at −80° C. […] levels in the supernatant were analyzed using a mesoscale discovery assay (MSD K151TUK) according to the manufacturers' instructions. Human whole blood was drawn from healthy volunteers after obtaining written informed consent.
Table D assigns each compound a code for potency in the human whole blood (hWB) NLRP3 Assay: A or B. According to the code. […] The corresponding raw activity data is also included.

[1] = Brain levels (kp and kpu,u) after oral administration; assay type: in vivo, CDI mice; settings: mice, 20 mpk PO; for Kp at 24 h / Kpu,u (unbound brain-to-plasma ratio): CDI, mouse, brain / plasma, po, 20 mg/kg; for Kp at 24 h: whole brain AUC over 24 h divided by plasma AUC; for Kpu,u (unbound brain-to-plasma ratio) / kpu,u (code): kp corrected with mouse plasma protein binding and mouse brain homogenate binding
Protocol: The in vivo total brain to plasma ratio was assessed in CDI mice after oral administration of the compound. Blood was collected at several timepoints up to 24 h, and transferred into plastic micro centrifuge tubes with EDTA-K2 as anticoagulant. Blood samples were centrifuged at 4000 g for 5 minutes at 4° C. to obtain plasma, then immediately frozen and stored at −75±15° C. prior to analysis. Animals were terminally anaesthetized with a rising concentration of CO2 gas at about 1 minute. At selected timepoints, whole brains were removed from the skull, rinsed in cold PBS to remove blood, dried with clean gauze, then frozen in liquid nitrogen and kept at −75±15° C. before analysis. At the time of analysis, brain samples were homogenized with PBS by tissue weight (g) to PBS volume (mL) ratio 1:3. Plasma and brain drug levels were quantified by LC/MS/MS on a AB Sciex Triple Quad 5500+ instrument, after separation on a HALO 160A ES-C18, 2.7 μm 2.1-50 mm column. Quantitation was performed using a calibration curve prepared in blank plasma or blank brain homogenate. The software WinNonlin (Phoenix™) was used for pharmacokinetic analysis from the concentrations versus time data, including the AUCinf and AUClast. The Kp ratio (total brain concentration over total plasma concentration) was calculated as (AUCtot,br)/(AUCtot,pl).
The unbound brain exposure was assessed as Kpuu, which is the free brain/free plasma concentration ratio (Cu,br/Cu,pl). The Cu,br/Cu,pl ratios were obtained from in vivo total brain to plasma ratios (Ctot,br/Ctot,pl) by using in vitro determined Fu,br and Fu,pl.
Plasma protein binding and brain homogenate protein binding were measured by equilibrium dialysis in a HTDialysis plate. The dialysis membranes were soaked in ultrapure water for 60 minutes to separate strips, then in 20% ethanol for 20 minutes, finally in dialysis buffer for 20 minutes. The dialysis set up was assembled according to the manufacturer's instruction. Each cell received 150 μL of plasma or brain homogenate spiked with 1 mM of compound, and dialyzed against an equal volume of dialysis buffer (PBS). The dialysis plate was sealed and incubated in an incubator at 37° C. with 5% CO2 at 100 rpm for 6 hours. At the end of incubation, compound concentration was measured in both chambers by LC-MS/MS on a Triple Quad™ 5500 from AB Inc after separation on a XSelect Hss T3 2.5μ (2.1×30 mm) column. Free fraction (Fu) was calculated as (Peak Area Ratio buffer chamber/Peak Area Ratio plasma chamber).
Kpuu was calculated as (AUCtot,br×Fu,br)/(AUCtot,pl×Fu,pl).
The below table also assigns each compound a code for kp and kpu,u values: A or B. According to the code. A represents a value of >0.3 and B represents a value of ≤0.3. […] The kpu,u was then calculated upon correcting this kp value with mouse plasma protein binding and mouse brain homogenates binding. A Kpu,u value >0.3 is brain penetrant, and Kpu,u value less than or equal to 0.3 is not brain penetrant. N.D.=not determined. The corresponding raw kp and kpu,u data is also included.

T1 sequence (Q96P20 whole entry): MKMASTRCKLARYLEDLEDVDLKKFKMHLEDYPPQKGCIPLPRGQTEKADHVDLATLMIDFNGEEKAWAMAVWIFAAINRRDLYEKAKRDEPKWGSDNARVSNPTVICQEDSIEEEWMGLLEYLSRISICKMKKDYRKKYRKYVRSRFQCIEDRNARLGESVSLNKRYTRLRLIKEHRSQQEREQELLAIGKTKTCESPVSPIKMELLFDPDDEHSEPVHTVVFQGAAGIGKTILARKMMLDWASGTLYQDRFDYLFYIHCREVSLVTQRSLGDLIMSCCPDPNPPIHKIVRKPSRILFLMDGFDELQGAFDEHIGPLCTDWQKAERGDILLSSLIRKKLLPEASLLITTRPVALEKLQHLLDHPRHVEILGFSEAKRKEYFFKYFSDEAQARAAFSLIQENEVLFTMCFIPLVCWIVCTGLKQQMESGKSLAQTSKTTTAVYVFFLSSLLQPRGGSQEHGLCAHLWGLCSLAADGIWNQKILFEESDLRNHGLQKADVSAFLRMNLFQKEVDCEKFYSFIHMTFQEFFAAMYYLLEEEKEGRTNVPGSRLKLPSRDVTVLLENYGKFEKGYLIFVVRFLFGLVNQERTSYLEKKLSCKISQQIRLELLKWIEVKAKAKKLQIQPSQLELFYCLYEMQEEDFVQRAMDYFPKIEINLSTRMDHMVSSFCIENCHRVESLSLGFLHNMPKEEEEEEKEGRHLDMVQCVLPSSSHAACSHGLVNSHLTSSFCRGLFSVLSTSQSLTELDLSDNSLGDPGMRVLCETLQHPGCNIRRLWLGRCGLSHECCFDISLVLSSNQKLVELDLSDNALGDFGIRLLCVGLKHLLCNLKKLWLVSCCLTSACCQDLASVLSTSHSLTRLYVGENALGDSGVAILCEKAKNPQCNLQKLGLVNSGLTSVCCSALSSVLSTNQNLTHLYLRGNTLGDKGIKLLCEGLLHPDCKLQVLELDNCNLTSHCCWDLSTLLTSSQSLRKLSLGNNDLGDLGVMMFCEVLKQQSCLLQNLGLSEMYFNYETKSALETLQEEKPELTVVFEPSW

IC50 (NLRP3)	Kp at 24 h ([1]; read-out: kp (code))	Kp at 24 h ([1]; read-out: kp (raw))	Kpu,u (unbound brain-to-plasma ratio) [1]	kpu,u (code) [1]	SMILES
2.4 µM					CC1(C)COCC[C@H]1Nc1nnc(-c2ccc(C(F)F)cc2O)c2ccncc12 (single isomer, unassigned) [Compound 17B]
2.3 µM					Cc1cc(O)c(-c2nnc(N[C@@H]3COC(C)(C)C3)c3cnccc23)c(F)c1 (single isomer, unassigned) [Compound 21B]
0.51 µM	> 0.3	0.64	0.33	A (A represents a value of >0.3)	Cc1ccc(-c2nnc(N[C@H]3CCOC(C)(C)C3)c3cnccc23)c(O)c1 (single isomer, unassigned) [Compound 14]
1.2 µM					Oc1cc(C(F)(F)F)ccc1-c1nnc(N[C@@H]2COC3(CC3)C2)c2cnccc12 (single isomer, unassigned) [Compound 19B]
1.26 µM					CN1CCO[C@H](CNc2nnc(-c3ccc(C(F)(F)F)cc3O)c3ccncc23)C1 (single isomer, unassigned) [Compound 6B*]
3.6 µM					Cc1ccc(-c2nnc(N[C@@H]3CCOC(C)(C)C3)c3cnccc23)c(O)c1 (single isomer, unassigned) [Compound 14B]
1.8 µM					CC1(C)COC[C@H]1Nc1nnc(-c2ccc(Cl)cc2O)c2ccncc12 (single isomer, unassigned) [Compound 1B*]
0.22 µM	> 0.3	0.6	0.77	A (A represents a value of >0.3)	Cc1ccc(-c2nnc(N[C@H]3CCOCC3(C)C)c3cnccc23)c(O)c1 (single isomer, unassigned) [Compound 13]
1.2 µM					C[C@H]1COCC[C@@H]1Nc1nnc(-c2ccc(Cl)cc2O)c2ccncc12 (single isomer, unassigned) [Compound 18C*]
18 µM					CC1(C)COCC[C@H]1Nc1nnc(-c2ccc(C(F)(F)F)cc2O)c2ccncc12 (single isomer, unassigned) [Compound 15B]
0.58 µM	> 0.3	1.1	0.1	B (B represents a value of ≤0.3)	C[C@@H]1C[C@H](Nc2nnc(-c3ccc(Cl)cc3O)c3ccncc23)CCO1 (single isomer, unassigned) [Compound 25A*]
10 µM					CC1(C)C[C@H](Nc2nnc(-c3ccc(C(F)(F)F)cc3O)c3ccncc23)CCO1 (single isomer, unassigned) [Compound 11B*]
0.16 µM	≤ 0.3	0.24	2.2	A (A represents a value of >0.3)	[2H]C([2H])([2H])OC(C)(C)CNc1nnc(-c2ccc(C(F)F)cc2O)c2ccncc12 [Compound 2, 5-(difluoromethyl)-2-(4-((2-(methoxy-d3)-2-methylpropyl)amino)pyrido[3,4-d]pyridazin-1-yl)phenol]
0.12 µM	≤ 0.3	0.24	0.33	A (A represents a value of >0.3)	CC1(C)C[C@@H](Nc2nnc(-c3ccc(C(F)F)cc3O)c3ccncc23)CO1 (single isomer, unassigned) [Compound 23]
1.4 µM	> 0.3	1.4	0.81	A (A represents a value of >0.3)	Oc1cc(C(F)(F)F)ccc1-c1nnc(N[C@H]2COC3(CC3)C2)c2cnccc12 (single isomer, unassigned) [Compound 19]
12 µM					CC1(C)C[C@H](Nc2nnc(-c3ccc(C(F)F)cc3O)c3ccncc23)CCO1 (single isomer, unassigned) [Compound 16B*]

IC50 (NLRP3)	Kp at 24 h ([1]; read-out: kp (code))	Kp at 24 h ([1]; read-out: kp (raw))	Kpu,u (unbound brain-to-plasma ratio) [1]	kpu,u (code) [1]	SMILES
0.43 µM	> 0.3	0.66	2.3	A (A represents a value of >0.3)	CN1CCO[C@@H](CNc2nnc(-c3ccc(C(F)(F)F)cc3O)c3ccncc23)C1 (single isomer, unassigned) [Compound 6*]
0.21 µM					Cc1ccc(-c2nnc(N[C@@H]3COC(C)(C)C3)c3cnccc23)c(O)c1 [Compound 5B, (S)-2-(4-((5,5-dimethyltetrahydrofuran-3-yl)amino)pyrido[3,4-d]pyridazin-1-yl)-5-methylphenol]
1.7 µM					CC1(C)C[C@H](Nc2nnc(-c3ccc(Cl)cc3O)c3ccncc23)CCO1 (single isomer, unassigned) [Compound 4B*]
1.8 µM	> 0.3	0.48	0.59	A (A represents a value of >0.3)	CC1(C)C[C@@H](Nc2nnc(-c3ccc(C(F)F)cc3O)c3ccncc23)CCO1 (single isomer, unassigned) [Compound 16*]
0.2 µM		0.18	0.11	B (B represents a value of ≤0.3)	OCC1(CNc2nnc(-c3ccc(Cl)cc3O)c3ccncc23)CC1 [Compound 8, 5-chloro-2-(4-(((1-(hydroxymethyl)cyclopropyl)methyl)amino)pyrido[3,4-d]pyridazin-1-yl)phenol, reference compound]
11 µM					CC1(C)COCC[C@H]1Nc1nnc(-c2ccc(Cl)cc2O)c2ccncc12 (single isomer, unassigned) [Compound 3B*]
3.2 µM					Cc1ccc(-c2nnc(N[C@@H]3COC(C)(C)C3)c3cnccc23)c(O)c1F (single isomer, unassigned) [Compound 12B]
5.9 µM					CC1(C)OCC[C@@H]1Nc1nnc(-c2ccc(C(F)(F)F)cc2O)c2ccncc12 (single isomer, unassigned) [Compound 22B]
7.9 µM					Cc1ccc(-c2nnc(N[C@@H]3CCC(C)(C)OC3)c3cnccc23)c(O)c1 (single isomer, unassigned) [Compound 10B*]
6.2 µM					C[C@@H]1COCC[C@@H]1Nc1nnc(-c2ccc(Cl)cc2O)c2ccncc12 (single isomer, unassigned) [Compound 18D*]
0.85 µM					C[C@H]1C[C@@H](Nc2nnc(-c3ccc(Cl)cc3O)c3ccncc23)CCO1 (single isomer, unassigned) [Compound 25B*]
1.3 µM					Cc1cc(O)c(-c2nnc(N[C@@H]3COC(C)(C)C3)c3cnccc23)c(Cl)c1 (single isomer, unassigned) [Compound 26B*]
3.4 µM					CC1(C)CC[C@@H](Nc2nnc(-c3ccc(C(F)F)cc3O)c3ccncc23)CO1 (single isomer, unassigned) [Compound 20B]
	≤ 0.3	0.28	0.09	B (B represents a value of ≤0.3)	CC1(C)C[C@H](Nc2nnc(-c3ccc(C(F)F)cc3O)c3ccncc23)CO1 (single isomer, unassigned) [Compound 23B]
9.8 µM					Cc1ccc(-c2nnc(N[C@@H]3CCOCC3(C)C)c3cnccc23)c(O)c1 (single isomer, unassigned) [Compound 13B]
